The text below walks through data of patent publication US5114918A, “Endothelin antagonistic cyclic pentapeptides” (Banyu Pharmaceutical Co., Ltd., priority 1989, dated 1992).

Assay [1] deals with male ddy mouse (endotoxin-induced body temperature lowering). The assay can be described thus: Endotoxin shock: endotoxin-induced body temperature lowering in mice. It counts as in vivo. The following applies: endotoxin 30 mg/kg i.v., compound 100 mg/kg i.p. 30 minutes prior to and 30 minutes subsequent to endotoxin. As for the experimental part:
(§1) Activities against an endotoxin shock
(§2) To a male ddy mouse, endotoxin (Lipopolysaccharide derived from E. coli 055:B5) dissolved in a 0.15% sodium hydrogencarbonate aqueous solution, was intravenously administered via the tail vein at a dose of 30 mg/kg, whereupon a distinct body temperature lowering effect was observed.

In assay [2] the test system is mice (endotoxin-induced mortality). The assay can be described thus: Endotoxin shock: endotoxin-induced mortality in mice. The following applies: for Survived number/number of the tested animals / survival rate (%): compound 100 × 2 mg/kg i.p. It counts as in vivo, mouse. As to the method:
as §1, §2
The intravenous administration of endotoxin via the tail vein at a high dose (100 mg/kg) killed mice in all cases (10/10) within 48 hours.

The target of assay [3] is T1, endothelin receptor (membrane of smooth muscle tissue of porcine aorta) (Sus scrofa, UniProt Q29010).
T1 construct: from tissue; host or cells: smooth muscle tissue of porcine aorta (membrane fraction)
T1 sequence (Q29010 21-427): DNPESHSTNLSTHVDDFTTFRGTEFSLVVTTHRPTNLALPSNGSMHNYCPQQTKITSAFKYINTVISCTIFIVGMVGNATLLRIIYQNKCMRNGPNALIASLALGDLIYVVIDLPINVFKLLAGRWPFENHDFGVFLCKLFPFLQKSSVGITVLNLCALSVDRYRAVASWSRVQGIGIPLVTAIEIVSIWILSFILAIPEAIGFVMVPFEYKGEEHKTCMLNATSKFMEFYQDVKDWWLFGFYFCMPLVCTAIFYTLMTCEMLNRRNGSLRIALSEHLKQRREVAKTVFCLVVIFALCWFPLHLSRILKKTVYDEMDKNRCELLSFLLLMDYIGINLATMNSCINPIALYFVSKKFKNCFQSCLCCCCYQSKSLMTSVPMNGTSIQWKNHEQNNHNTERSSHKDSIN
Kind of assay: Endothelin binding inhibition test (125I-endothelin-1, porcine aorta smooth muscle membrane). The following applies: 1.1 μM of the test compound, porcine aorta smooth muscle membrane, 25° C, 4 hours; for inhibition at 1.1 µM: read-out: 125I-endothelin-1 binding inhibition, Inhibition (%). The method in brief:
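Porcine aortic smooth muscle membranes incubated with ^125I-endothelin-1 (12000-18000 cpm) and test compound at 1.1 μM final in Tris/HCl pH 7.4 with protease inhibitors and 0.1% BSA, 4 h at 25 °C. Filter-bound radioactivity counted, nonspecific binding defined with 0.2 μM endothelin-1; % binding inhibition in triplicate.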

Assay [4] deals with isolated porcine coronary artery (endothelin-1-induced contraction). Kind of assay: Activities against endothelin-induced contraction of isolated porcine coronary arteries. The following applies: for shift of the concentration-response curve of endothelin-1: added 20 minutes prior to endothelin-1. Set-up: species or system pig. As to the method: Activities against endothelin-induced contraction of isolated procine coronary arteries
The coronary artery of pig was extracted, and a spiral preparation having a width of 1 mm and a length of 10 mm was prepared therefrom. The preparation having the endothelial cells denuded, was hanged in a 5 ml organ bath filled wit a Krebs.Henseleit solution saturated with a gas mixture of 95% O2 and 5% CO2, and the change in the tension was isometrically measured and recorded.
(§3) Endothelin-1 was added into the organ bath in a cumulatively increasing manner, whereby the influence of the compound of the present invention to the concentration-response curve for endothelin-1 was examined. The compound of the present invention was added into the organ bath 20 minutes prior to the addition of endothelin-1.

Assay [5] relates to isolated guinea pig trachea (endothelin-1-induced contraction). The assay can be described thus: Activities against endothelin-induced contraction of isolated guinea pig trachea. The following applies: for shift of the concentration-response curve for endothelin-1: added 20 minutes prior to endothelin-1. As to the method: Activities aqainst endothelin-induced contraction of isolated guinea pig trachea
The trachea of a guinea pig was extracted, and the trachea was cut into rings to afford the preparation. A preparation having the endothelial cells denuded, was hanged in a 5 ml organ bath filled with a Krebs.Henseleit solution saturated with a gas mixture of 95% O2 and 5% CO2, and the change in the tension was isometrically measured and recorded.
Endothelin-1 was added into the organ bath in a cumulatively increasing manner, and the influence of the compound of the present invention to the concentration-response curve for endothelin was examined. The compound of the present invention was added into the organ bath 20 minutes prior to the addition of endothelin-1.

Assay [6] has as its system isolated porcine basilar artery (endothelin-1-induced contraction). The assay can be described thus: Activities against endothelin-induced contraction of isolated porcine basilar artery. Set-up: species or system pig. The following applies: compound 2 μM. As to the method: Activities aqainst endothelin-induced contraction of isolated porcine basilar artery
The arteria basilaris of pig was extracted, and then a ring preparation with a width of 4 mm was prepared. After denuded the endothelial cells, the preparation was hanged in a 5 ml organ bath filled with a Krebs.Henseleit solution saturated with a gas mixture of 95% O2 and 5% CO2, and the change in the tension was isometrically measured and recorded.
as §3

The subject of assay [7] is isolated rat heart (endothelin-1-induced increase of perfusion pressure). The assay can be described thus: Effects on the increased perfusion pressure induced by endothelin in isolated rat heart. As to the method:
Effects on the increased perfusion pressure induced by endothelin in isolated rat heart
The heart of a male Sprague Dohrie (SD) rat was extracted, and the perfusion pressure was measured and recorded by a Langendorff's method. The perfusion pressure was evaluated on the basis that the state where a Krebs.Henseleit solution saturated with a gas mixture of 95% O2 and 5% CO2 was infused at a rate of 10 ml/min, was taken as a standard.
Endothelin-1 was cumulatively added to the perfusate, whereby the influence of the compound to the concentration-response curve for endothelin-1 was examined. The compound of the present invention which was dissolved in the perfusate had been infused from 20 minutes prior to the addition of endothelin-1 till just after finishing measurement of the concentration-response curve for endothelin-1.

Where [8] appears, read: 24 hr after endotoxin (100 mg/kg i.v.).
Setting [9] is: 48 hr after endotoxin (100 mg/kg i.v.).
The mark [10] stands for this setting: 96 hr after endotoxin (100 mg/kg i.v.).

“And” between values parts separate entries of the source, which are not always exact repeats. Equal entries are not always repeated. Square brackets hold non-standard residues; d marks the D form. Peptide text beside a SMILES is read from it. d(aIle) = CC[C@H](C)[C@@H](N)C(=O)O; dCya = N[C@H](CS(=O)(=O)O)C(=O)O; Nle = CCCC[C@H](N)C(=O)O; Thz = O=C(O)[C@@H]1CSCN1; βAla = NCCC(=O)O; Sar = CNCC(=O)O

Turning to `CC(C)C[C@@H]1NC(=O)[C@@H](C(C)C)NC(=O)[C@@H]2CCCN2C(=O)[C@@H](CC(=O)O)NC(=O)[C@@H](Cc2c[nH]c3ccccc23)NC1=O` [Example 15, cyclo(-DTrp-DAsp-Pro-DVal-Leu-)] (cyclo(L[dW][dD]P[dV])), the “effect on the endotoxin-induced body temperature lowering” value in assay [1] is “showed remarkable antagonistic activities against the endotoxin-induced body temperature lowering effect”. Further, in assay [2] (setting [8]), the “Survived number/number of the tested animals” value (“Survived number/number” for short) is recorded as 10/10 and the “survival rate (%)” value is 100%. In addition, in assay [2] (setting [9]), the “Survived number/number” value is 6/10 and the “survival rate (%)” value was determined as 60%. Also, in assay [2] (setting [10]), the “Survived number/number” value was “five cases out of ten cases survived and 5/10”; the “survival rate (%)” value stood at 50%. In addition, in assay [2] (endotoxin 100 mg/kg i.v., compound 100 mg/kg i.p. 30 minutes before and after endotoxin), the “effect on endotoxin-induced mortality” value is on record as “a distinct reduction in the mortality was observed”. The inhibition at 1.1 µM in assay [3] turned out to be 85%. Also, in assay [4] (compound 2 μM), the “effect on the maximum response to endothelin-1” value is on record as “did not affect the maximum response” and the “shift of the concentration-response curve of endothelin-1” value (shortened to “shift … of endothelin-1”) was “remarkably shifted the concentration-response curves of endothelin-1 to the right”. For the same molecule, in assay [5] (compound 2 μM), the “effect on the maximum response to endothelin-1” value was “did not affect the maximum response” and the “shift of the concentration-response curve for endothelin-1” value is listed as “remarkably shifted the concentration-response curves for endothelin-1 to the right”.

Turning to `CC(C)C[C@@H]1NC(=O)[C@@H](C(C)C)NC(=O)[C@H](C)NC(=O)[C@@H](CC(=O)O)NC(=O)[C@@H](Cc2c[nH]c3ccccc23)NC1=O` [Example 12, cyclo(-DTrp-DAsp-Ala-DVal-Leu-)] (cyclo(A[dV]L[dW][dD])), in assay [3], the inhibition at 1.1 µM amounted to 75%. Besides, in assay [4] (compound 3 μM), the “effect on the maximum response to endothelin-1” value is recorded as “did not affect the maximum response” and the “shift … of endothelin-1” value is recorded as “remarkably shifted the concentration-response curves of endothelin-1 to the right”.

Take “cyclo(-DTro-DCys(O3 Na)-Pro-DVal-Leu-) [Example 3]”: the “effect on the maximum response to endothelin-1” value in assay [6], in assay [4] (compound 2 μM) and in assay [5] (compound 6 μM) was “did not affect the maximum response” each time. The “shift of the concentration-response curve for endothelin-1” value in assay [6] (added 20 minutes prior to endothelin-1) is “remarkably shifted the concentration-response curve for endothelin-1 to the right”; in assay [5] (compound 6 μM), “remarkably shifted the concentration-response curves for endothelin-1 to the right”. Moreover, the “effect on the maximum response to endothelin-1 (perfusion pressure)” value in assay [7] (compound 1 μM) is “did not affect the maximum response”. Also, the “shift of the concentration-response curve for endothelin-1 (perfusion pressure)” value in assay [7] (compound 1 μM in the perfusate from 20 minutes prior to endothelin-1, Langendorff) is given as “moved the concentration-response curve for endothelin-1 to the right”. Further, the “125I-endothelin-1 binding inhibition, Inhibition (%)” value in assay [3] came out at 85%. Besides, in assay [4] (compound 2 μM), the “shift … of endothelin-1” value is given as “remarkably shifted the concentration-response curves of endothelin-1 to the right”.

As for `CC(C)C[C@@H]1NC(=O)[C@@H](C(C)C)NC(=O)CN(C)C(=O)[C@@H](CC(=O)O)NC(=O)[C@@H](Cc2c[nH]c3ccccc23)NC1=O` [Example 65, cyclo(-DTrp-DAsp-Sar-DVal-Leu-)] (cyclo(L[dW][dD][Sar][dV])), in assay [3], the inhibition at 1.1 µM stood at 85%.

In the case of `CSCC[C@@H]1NC(=O)[C@@H](CC(=O)O)NC(=O)[C@@H](Cc2c[nH]c3ccccc23)NC(=O)[C@H](CC(C)C)NC(=O)[C@@H](C(C)C)NC1=O` [Example 14, cyclo(-DTrp-DAsp-Met-DVal-Leu-)] (cyclo(L[dW][dD]M[dV])), the inhibition at 1.1 µM in assay [3] was 75%.

With `CC(C)C[C@@H]1NC(=O)[C@@H](C(C)C)NC(=O)CCNC(=O)[C@@H](CC(=O)O)NC(=O)[C@@H](Cc2c[nH]c3ccccc23)NC1=O` [Example 66, cyclo(-DTro-DAsp-β-Ala-DVal-Leu-)] (cyclo(L[dW][dD][βAla][dV])), the inhibition at 1.1 µM in assay [3] came to 38%.

As to cyclo([dW][dD]P[d(aIle)]L) [Example 32], in assay [3], the “125I-endothelin-1 binding inhibition, Inhibition (%)” value came to 87%.

On to “cyclo(-DTrp(CHO)-DCys(O3 Na)-Pro-DThg-Leu-) [Example 75]”, for which, in assay [3], the “125I-endothelin-1 binding inhibition, Inhibition (%)” value is given as 87%.

On to `CCCC[C@@H]1NC(=O)[C@@H](C(C)C)NC(=O)[C@@H]2CCCN2C(=O)[C@@H](CS(=O)(=O)O)NC(=O)[C@@H](Cc2c[nH]c3ccccc23)NC1=O` [Example 5, cyclo(-DTrp-DCys(O3 Na)-Pro-DVal-Nle-)] (cyclo([Nle][dW][dCya]P[dV])), for which the inhibition at 1.1 µM in assay [3] worked out at 81%.

Turning to `CC(C)C[C@@H]1NC(=O)[C@@H](C(C)C)NC(=O)[C@@H]2CSCN2C(=O)[C@@H](CC(=O)O)NC(=O)[C@@H](Cc2c[nH]c3ccccc23)NC1=O` [Example 68, cyclo(-DTrp-DAsp-Thz-DVal-Leu-)] (cyclo(L[dW][dD][Thz][dV])), the inhibition at 1.1 µM in assay [3] was 86%.

The inhibition is the relative decrease from the control value, in per cent.
